System: Crude diglycosidase
Test: Examination of temperature in the conversion into isoflavone aglycons by diglycosidase using soybean materials
Format: biochemical, Penicillium multicolor IAM7153
Set-up: Decomposition efficiency of glycitin family in roasted soy flour / Decomposition efficiency of daidzin family in roasted soy flour / Decomposition efficiency of genistin family in soymilk / Decomposition efficiency of daidzin family in soymilk / Decomposition efficiency of glycitin family in defatted soybean / Decomposition efficiency of daidzin family in defatted soybean: concentration or dose not given beside the values
Procedure: Into 400 μL of 20 mM acetate buffer of pH 4.0 was suspended 50 mg of each of various soybean materials (roasted soy flour (manufactured by Fuji Shokuryo K.K.), soymilk (manufactured by Gitoh Shokuhin K.K.), defatted soybean (manufactured by Fuji Seiyu K.K.), concentrated soybean protein (manufactured by Fuji Seiyu K.K.)), whereby a substrate solution was prepared. Crude diglycosidase was diluted with 20 mM acetate buffer of pH 4.0 to be the glycosidase activity of 1.88 AU/mL. Fifty μL of the enzyme solution was mixed with the substrate solution and the whole was reacted at 80, 65, 55, 45, 37, or 30° C. at the total volume of 500 μL. To the reaction mixture was added 700 μL of ethanol after 0, 1, 3, and 6 hours of the reaction. After stirring and ultrasonication, the mixture was subjected to centrifugal separation at 15,000 rpm and 4° C. for 10 minutes. The supernatant was filtered through a filter and the existence of isoflavone glycosides and aglycon isoflavones contained in the reaction mixture was detected by HLPC.

[1] = 30 °C, heat treatment of enzyme: no, 0 h
[2] = 30 °C, heat treatment of enzyme: no, 1 h
[3] = 30 °C, heat treatment of enzyme: no, 3 h
[4] = 30 °C, heat treatment of enzyme: no, 6 h
[5] = 30 °C, heat treatment of enzyme: yes, 6 h
[6] = 45 °C, heat treatment of enzyme: no, 0 h
[7] = 45 °C, heat treatment of enzyme: no, 1 h
[8] = 45 °C, heat treatment of enzyme: no, 3 h
[9] = 45 °C, heat treatment of enzyme: no, 6 h
[10] = 45 °C, heat treatment of enzyme: yes, 6 h
[11] = 55 °C, heat treatment of enzyme: no, 0 h
[12] = 55 °C, heat treatment of enzyme: no, 1 h
[13] = 55 °C, heat treatment of enzyme: no, 3 h
[14] = 55 °C, heat treatment of enzyme: no, 6 h
[15] = 55 °C, heat treatment of enzyme: yes, 6 h
[16] = 65 °C, heat treatment of enzyme: no, 0 h
[17] = 65 °C, heat treatment of enzyme: no, 1 h
[18] = 65 °C, heat treatment of enzyme: no, 3 h
[19] = 65 °C, heat treatment of enzyme: no, 6 h
[20] = 65 °C, heat treatment of enzyme: yes, 6 h
[21] = 80 °C, heat treatment of enzyme: no, 0 h
[22] = 80 °C, heat treatment of enzyme: no, 1 h
[23] = 80 °C, heat treatment of enzyme: no, 3 h
[24] = 80 °C, heat treatment of enzyme: no, 6 h
[25] = 80 °C, heat treatment of enzyme: yes, 6 h

In the case of COc1cc2c(=O)c(-c3ccc(O)cc3)coc2cc1O[C@@H]1O[C@H](COC(=O)CC(=O)O)[C@@H](O)[C@H](O)[C@H]1O [malonylglycitin, 6″-O-malonylglycitin], the “Decomposition efficiency of glycitin family in defatted soybean” value (30° C., heat treatment of enzyme no, reaction time 0 h) is reported as 61.3%, the “Decomposition efficiency of glycitin family in defatted soybean” value (30° C., heat treatment of enzyme no, reaction time 1 h) is reported as 48.3% and the “Decomposition efficiency of glycitin family in defatted soybean” value (30° C., heat treatment of enzyme no, reaction time 3 h) is reported as 44.6%. The “Decomposition efficiency of glycitin family in defatted soybean” value (30° C., heat treatment of enzyme no, reaction time 6 h) was 45.6%, the “Decomposition efficiency of glycitin family in defatted soybean” value (30° C., heat treatment of enzyme yes, reaction time 6 h) was 45.1% and the “Decomposition efficiency of glycitin family in concentrated soybean protein” value [1] was 0.4%. The “Decomposition efficiency of glycitin family in roasted soy flour” value [1] was “not detected”, the “Decomposition efficiency of glycitin family in soymilk” value (shortened to “Decomposition efficiency … in soymilk”) [1] was 48.0% and the “Decomposition efficiency of glycitin family in concentrated soybean protein” value [2] was 0.5%. The “Decomposition efficiency of glycitin family in roasted soy flour” value [2] was “not detected”, the “Decomposition efficiency … in soymilk” value [2] was 51.0% and the “Decomposition efficiency of glycitin family in concentrated soybean protein” value [3] was 0.5%. The “Decomposition efficiency of glycitin family in roasted soy flour” value [3] was “not detected”, the “Decomposition efficiency … in soymilk” value [3] was 39.6% and the “Decomposition efficiency of glycitin family in concentrated soybean protein” value [4] was 0.5%. For the same compound, the “Decomposition efficiency of glycitin family in roasted soy flour” value [4] was “not detected”, the “Decomposition efficiency … in soymilk” value [4] was 28.4% and the “Decomposition efficiency of glycitin family in concentrated soybean protein” value [5] was 0.4%. For the same compound, the “Decomposition efficiency of glycitin family in roasted soy flour” value [5] was “not detected”, the “Decomposition efficiency … in soymilk” value [5] was 47.7% and the “Decomposition efficiency of glycitin family in defatted soybean” value (45° C., heat treatment of enzyme no, reaction time 0 h) was 65.2%. The “Decomposition efficiency of glycitin family in defatted soybean” value (45° C., heat treatment of enzyme no, reaction time 1 h) was 44.3%, the “Decomposition efficiency of glycitin family in defatted soybean” value (45° C., heat treatment of enzyme no, reaction time 3 h) was 44.8% and the “Decomposition efficiency of glycitin family in defatted soybean” value (45° C., heat treatment of enzyme no, reaction time 6 h) was 41.0%. For the same compound, the “Decomposition efficiency of glycitin family in defatted soybean” value (45° C., heat treatment of enzyme yes, reaction time 6 h) was 44.2%, the “Decomposition efficiency of glycitin family in concentrated soybean protein” value [6] was 0.4% and the “Decomposition efficiency of glycitin family in roasted soy flour” value [6] was “not detected”. The “Decomposition efficiency … in soymilk” value [6] was 49.1%, the “Decomposition efficiency of glycitin family in concentrated soybean protein” value [7] was 0.6% and the “Decomposition efficiency of glycitin family in roasted soy flour” value [7] was “not detected”. For the same compound, the “Decomposition efficiency … in soymilk” value [7] was 46.2%, the “Decomposition efficiency of glycitin family in concentrated soybean protein” value [8] was 0.6% and the “Decomposition efficiency of glycitin family in roasted soy flour” value [8] was “not detected”. The “Decomposition efficiency … in soymilk” value [8] was 29.9%, the “Decomposition efficiency of glycitin family in concentrated soybean protein” value [9] was 0.6% and the “Decomposition efficiency of glycitin family in roasted soy flour” value [9] was “not detected”. For the same compound, the “Decomposition efficiency … in soymilk” value [9] was 15.3%, the “Decomposition efficiency of glycitin family in concentrated soybean protein” value [10] was 0.5% and the “Decomposition efficiency of glycitin family in roasted soy flour” value [10] was “not detected”. For the same compound, the “Decomposition efficiency … in soymilk” value [10] was 47.2%, the “Decomposition efficiency of glycitin family in defatted soybean” value (55° C., heat treatment of enzyme no, reaction time 0 h) was 61.3% and the “Decomposition efficiency of glycitin family in defatted soybean” value (55° C., heat treatment of enzyme no, reaction time 1 h) was 44.8%. The “Decomposition efficiency of glycitin family in defatted soybean” value (55° C., heat treatment of enzyme no, reaction time 3 h) was 42.6%, the “Decomposition efficiency of glycitin family in defatted soybean” value (55° C., heat treatment of enzyme no, reaction time 6 h) was 42.7% and the “Decomposition efficiency of glycitin family in defatted soybean” value (55° C., heat treatment of enzyme yes, reaction time 6 h) was 45.5%. For the same compound, the “Decomposition efficiency of glycitin family in concentrated soybean protein” value [11] was 0.4%, the “Decomposition efficiency of glycitin family in roasted soy flour” value [11] was “not detected” and the “Decomposition efficiency … in soymilk” value [11] was 44.6%. The “Decomposition efficiency of glycitin family in concentrated soybean protein” value [12] was 0.5%, the “Decomposition efficiency of glycitin family in roasted soy flour” value [12] was “not detected” and the “Decomposition efficiency … in soymilk” value [12] was 39.1%. For the same compound, the “Decomposition efficiency of glycitin family in concentrated soybean protein” value [13] was 0.5%, the “Decomposition efficiency of glycitin family in roasted soy flour” value [13] was “not detected” and the “Decomposition efficiency … in soymilk” value [13] was 27.7%. The “Decomposition efficiency of glycitin family in concentrated soybean protein” value [14] was 0.5%, the “Decomposition efficiency of glycitin family in roasted soy flour” value [14] was “not detected” and the “Decomposition efficiency … in soymilk” value [14] was 16.5%. The “Decomposition efficiency of glycitin family in concentrated soybean protein” value [15] was 0.4%, the “Decomposition efficiency of glycitin family in roasted soy flour” value [15] was “not detected” and the “Decomposition efficiency … in soymilk” value [15] was 39.9%. For the same compound, the “Decomposition efficiency of glycitin family in defatted soybean” value (65° C., heat treatment of enzyme no, reaction time 0 h) was 65.2%, the “Decomposition efficiency of glycitin family in defatted soybean” value (65° C., heat treatment of enzyme no, reaction time 1 h) was 45.3% and the “Decomposition efficiency of glycitin family in defatted soybean” value (65° C., heat treatment of enzyme no, reaction time 3 h) was 42.1%. The “Decomposition efficiency of glycitin family in defatted soybean” value (65° C., heat treatment of enzyme no, reaction time 6 h) was 40.0%, the “Decomposition efficiency of glycitin family in defatted soybean” value (65° C., heat treatment of enzyme yes, reaction time 6 h) was 48.8% and the “Decomposition efficiency of glycitin family in concentrated soybean protein” value [16] was 0.4%. For the same compound, the “Decomposition efficiency of glycitin family in roasted soy flour” value [16] was “not detected”, the “Decomposition efficiency … in soymilk” value [16] was 48.0% and the “Decomposition efficiency of glycitin family in concentrated soybean protein” value [17] was 0.5%. For the same compound, the “Decomposition efficiency of glycitin family in roasted soy flour” value [17] was “not detected”, the “Decomposition efficiency … in soymilk” value [17] was 42.4% and the “Decomposition efficiency of glycitin family in concentrated soybean protein” value [18] was 0.5%. For the same compound, the “Decomposition efficiency of glycitin family in roasted soy flour” value [18] was “not detected”, the “Decomposition efficiency … in soymilk” value [18] was 34.3% and the “Decomposition efficiency of glycitin family in concentrated soybean protein” value [19] was 0.4%. For the same compound, the “Decomposition efficiency of glycitin family in roasted soy flour” value [19] was “not detected”, the “Decomposition efficiency … in soymilk” value [19] was 25.5% and the “Decomposition efficiency of glycitin family in concentrated soybean protein” value [20] was 0.4%. For the same compound, the “Decomposition efficiency of glycitin family in roasted soy flour” value [20] was “not detected”, the “Decomposition efficiency … in soymilk” value [20] was 36.0% and the “Decomposition efficiency of glycitin family in defatted soybean” value (80° C., heat treatment of enzyme no, reaction time 0 h) was 65.2%. For the same compound, the “Decomposition efficiency of glycitin family in defatted soybean” value (80° C., heat treatment of enzyme no, reaction time 1 h) was 46.1%, the “Decomposition efficiency of glycitin family in defatted soybean” value (80° C., heat treatment of enzyme no, reaction time 3 h) was 45.0% and the “Decomposition efficiency of glycitin family in defatted soybean” value (80° C., heat treatment of enzyme no, reaction time 6 h) was 40.3%. For the same compound, the “Decomposition efficiency of glycitin family in defatted soybean” value (80° C., heat treatment of enzyme yes, reaction time 6 h) was 48.1%, the “Decomposition efficiency of glycitin family in concentrated soybean protein” value [21] was 0.4% and the “Decomposition efficiency of glycitin family in roasted soy flour” value [21] was “not detected”. For the same compound, the “Decomposition efficiency … in soymilk” value [21] was 49.1%, the “Decomposition efficiency of glycitin family in concentrated soybean protein” value [22] was 0.4% and the “Decomposition efficiency of glycitin family in roasted soy flour” value [22] was “not detected”. The “Decomposition efficiency … in soymilk” value [22] was 43.6%, the “Decomposition efficiency of glycitin family in concentrated soybean protein” value [23] was 0.4% and the “Decomposition efficiency of glycitin family in roasted soy flour” value [23] was “not detected”. The “Decomposition efficiency … in soymilk” value [23] was 32.6%, the “Decomposition efficiency of glycitin family in concentrated soybean protein” value [24] was 0.3% and the “Decomposition efficiency of glycitin family in roasted soy flour” value [24] was “not detected”. For the same compound, the “Decomposition efficiency … in soymilk” value [24] was 21.3%, the “Decomposition efficiency of glycitin family in concentrated soybean protein” value [25] was 0.3% and the “Decomposition efficiency of glycitin family in roasted soy flour” value [25] was “not detected”. For the same compound, the “Decomposition efficiency … in soymilk” value [25] was 19.3%.
